{
  "source": "patent US20260207761A1",
  "about": "“USE OF DRUG CONJUGATE IN TREATMENT OF TUMOR DISEASE AND METHOD” (priority 2023, published 2026)",
  "key": {"[1]": {"test": "Trial Example 4: pharmacokinetic study, dose-escalation cohort"}, "[2]": {"settings": "for exposure to toxin molecules: 50 mg/kg, after the last administration"}, "[3]": {"settings": "conjugate A 25 mg/kg, female, Day 1"}, "[4]": {"settings": "conjugate A 25 mg/kg, female, Day 43"}, "[5]": {"settings": "conjugate A 25 mg/kg, male, Day 1"}, "[6]": {"settings": "conjugate A 25 mg/kg, male, Day 43"}, "[7]": {"settings": "conjugate A 50 mg/kg, female, Day 1"}, "[8]": {"settings": "conjugate A 50 mg/kg, female, Day 43"}, "[9]": {"settings": "conjugate A 50 mg/kg, male, Day 1"}, "[10]": {"settings": "conjugate A 50 mg/kg, male, Day 43"}, "[11]": {"settings": "conjugate A 75 mg/kg, female, Day 1"}, "[12]": {"settings": "conjugate A 75 mg/kg, female, Day 43"}, "[13]": {"settings": "conjugate A 75 mg/kg, male, Day 1"}, "[14]": {"settings": "conjugate A 75 mg/kg, male, Day 43"}},
  "note": "Where two headings read alike, the source gives them in different places.",
  "data": [
    {"smiles": "CC[C@@]1(O)C(=O)OCc2c1cc1n(c2=O)Cc2c-1nc1ccccc1c2CCN(C(C)C)S(C)(=O)=O", "note": "[toxins]", "values": [
      {"measurement": "plasma exposure of the free payload, AUC, relative to conjugate A", "setting": "[1]; first 4-week period", "value": "~5", "unit": "%"},
      {"measurement": "plasma exposure of the free payload, Cmax, relative to conjugate A", "setting": "[1]; first 4-week period", "value": "about 6%"},
      {"measurement": "half-life", "setting": "[1]; patients, biweekly dosing regimen", "value": "~49", "unit": "h"},
      {"measurement": "exposure to toxin molecules", "setting": "[2]; female monkeys", "value": 5860, "unit": "ng·h/mL"},
      {"measurement": "exposure to toxin molecules", "setting": "[2]; male monkeys", "value": 3850, "unit": "ng·h/mL"},
      {"measurement": "AUClast of toxins", "setting": "[2]; [3]", "value": 1430, "unit": "ng·h/mL"},
      {"measurement": "Cmax of toxins", "setting": "[2]; [3]", "value": 38.3, "unit": "ng/mL"},
      {"measurement": "AUClast of toxins", "setting": "[2]; [4]", "value": 1860, "unit": "ng·h/mL"},
      {"measurement": "Cmax of toxins", "setting": "[2]; [4]", "value": 65.1, "unit": "ng/mL"},
      {"measurement": "AUClast of toxins", "setting": "[2]; [5]", "value": 1790, "unit": "ng·h/mL"},
      {"measurement": "Cmax of toxins", "setting": "[2]; [5]", "value": 49.0, "unit": "ng/mL"},
      {"measurement": "AUClast of toxins", "setting": "[2]; [6]", "value": 2570, "unit": "ng·h/mL"},
      {"measurement": "Cmax of toxins", "setting": "[2]; [6]", "value": 64.5, "unit": "ng/mL"},
      {"measurement": "AUClast of toxins", "setting": "[2]; [7]", "value": 3970, "unit": "ng·h/mL"},
      {"measurement": "Cmax of toxins", "setting": "[2]; [7]", "value": 113, "unit": "ng/mL"},
      {"measurement": "AUClast of toxins", "setting": "[2]; [8]", "value": 3850, "unit": "ng·h/mL"},
      {"measurement": "Cmax of toxins", "setting": "[2]; [8]", "value": 127, "unit": "ng/mL"},
      {"measurement": "AUClast of toxins", "setting": "[2]; [9]", "value": 4490, "unit": "ng·h/mL"},
      {"measurement": "Cmax of toxins", "setting": "[2]; [9]", "value": 94.0, "unit": "ng/mL"},
      {"measurement": "AUClast of toxins", "setting": "[2]; [10]", "value": 5860, "unit": "ng·h/mL"},
      {"measurement": "Cmax of toxins", "setting": "[2]; [10]", "value": 146, "unit": "ng/mL"},
      {"measurement": "AUClast of toxins", "setting": "[2]; [11]", "value": 5120, "unit": "ng·h/mL"},
      {"measurement": "Cmax of toxins", "setting": "[2]; [11]", "value": 132, "unit": "ng/mL"},
      {"measurement": "AUClast of toxins", "setting": "[2]; [12]", "value": 4680, "unit": "ng·h/mL"},
      {"measurement": "Cmax of toxins", "setting": "[2]; [12]", "value": 137, "unit": "ng/mL"},
      {"measurement": "AUClast of toxins", "setting": "[2]; [13]", "value": 5420, "unit": "ng·h/mL"},
      {"measurement": "Cmax of toxins", "setting": "[2]; [13]", "value": 132, "unit": "ng/mL"},
      {"measurement": "AUClast of toxins", "setting": "[2]; [14]", "value": 4080, "unit": "ng·h/mL"},
      {"measurement": "Cmax of toxins", "setting": "[2]; [14]", "value": 110, "unit": "ng/mL"}
    ]}
  ]
}
